Assay [1] concerns Staphylococcus aureus. Briefly: Antimicrobial activity against Staphylococcus aureus isolate 703 harboring mprF C884A mutant gene by Etest. It counts as functional.
The subject of assay [2] is Staphylococcus aureus. Briefly: Antimicrobial activity against Staphylococcus aureus isolate 701 harboring mprF C884A mutant gene by Etest. It is filed as functional.
Assay [3] relates to Staphylococcus aureus. Briefly: microbe, parasite or virus in culture. The following applies: isolate 616.
Description: Antimicrobial activity against Staphylococcus aureus isolate 616 by Etest
Assay [4] has as its system Staphylococcus aureus. Briefly: Antimicrobial activity against Staphylococcus aureus isolate 629 by Etest. It is filed as functional.

Values after ≈ are worked out from the molar mass of the structure shown.

With `CCCCCCCCCC(=O)N[C@@H](Cc1c[nH]c2ccccc12)C(=O)N[C@H](CC(N)=O)C(=O)N[C@@H](CC(=O)O)C(=O)N[C@@H]1C(=O)NCC(=O)N[C@@H](CCCN)C(=O)N[C@@H](CC(=O)O)C(=O)N[C@H](C)C(=O)N[C@@H](CC(=O)O)C(=O)NCC(=O)N[C@H](CO)C(=O)N[C@@H]([C@H](C)CC(=O)O)C(=O)N[C@@H](CC(=O)c2ccccc2N)C(=O)O[C@@H]1C`, the MIC with Staphylococcus aureus [1] was determined as 2 µg/mL (≈ 1.23 µM); against Staphylococcus aureus [2], 2 µg/mL (≈ 1.23 µM); in the assay on Staphylococcus aureus [3], 0.5 µg/mL (≈ 0.309 µM); against Staphylococcus aureus [4], 0.75 µg/mL (≈ 0.463 µM).

(Values after ChEMBL document CHEMBL1649434, “Regulation of mprF in daptomycin-nonsusceptible Staphylococcus aureus strains” (2009).)
